Measurements from US11739098B2 (BRISTOL-MYERS SQUIBB COMPANY, priority 2017, dated 2023).

Experiments:
Format in all cases: cell-based
human TLR9 = molecular target: T1, human TLR9 (Homo sapiens, UniProt Q9NR96); experiment: TLR9 inhibition reporter assay (HEK-Blue cells, SEAP reporter, ODN2006 stimulation); conditions: HEK-Blue cells overexpressing human TLR9, SEAP reporter, ODN2006 5 nM
T1 construct: host or cells: HEK-Blue cells (HEK293-derived reporter line)
T1 sequence (Q9NR96 26-1032): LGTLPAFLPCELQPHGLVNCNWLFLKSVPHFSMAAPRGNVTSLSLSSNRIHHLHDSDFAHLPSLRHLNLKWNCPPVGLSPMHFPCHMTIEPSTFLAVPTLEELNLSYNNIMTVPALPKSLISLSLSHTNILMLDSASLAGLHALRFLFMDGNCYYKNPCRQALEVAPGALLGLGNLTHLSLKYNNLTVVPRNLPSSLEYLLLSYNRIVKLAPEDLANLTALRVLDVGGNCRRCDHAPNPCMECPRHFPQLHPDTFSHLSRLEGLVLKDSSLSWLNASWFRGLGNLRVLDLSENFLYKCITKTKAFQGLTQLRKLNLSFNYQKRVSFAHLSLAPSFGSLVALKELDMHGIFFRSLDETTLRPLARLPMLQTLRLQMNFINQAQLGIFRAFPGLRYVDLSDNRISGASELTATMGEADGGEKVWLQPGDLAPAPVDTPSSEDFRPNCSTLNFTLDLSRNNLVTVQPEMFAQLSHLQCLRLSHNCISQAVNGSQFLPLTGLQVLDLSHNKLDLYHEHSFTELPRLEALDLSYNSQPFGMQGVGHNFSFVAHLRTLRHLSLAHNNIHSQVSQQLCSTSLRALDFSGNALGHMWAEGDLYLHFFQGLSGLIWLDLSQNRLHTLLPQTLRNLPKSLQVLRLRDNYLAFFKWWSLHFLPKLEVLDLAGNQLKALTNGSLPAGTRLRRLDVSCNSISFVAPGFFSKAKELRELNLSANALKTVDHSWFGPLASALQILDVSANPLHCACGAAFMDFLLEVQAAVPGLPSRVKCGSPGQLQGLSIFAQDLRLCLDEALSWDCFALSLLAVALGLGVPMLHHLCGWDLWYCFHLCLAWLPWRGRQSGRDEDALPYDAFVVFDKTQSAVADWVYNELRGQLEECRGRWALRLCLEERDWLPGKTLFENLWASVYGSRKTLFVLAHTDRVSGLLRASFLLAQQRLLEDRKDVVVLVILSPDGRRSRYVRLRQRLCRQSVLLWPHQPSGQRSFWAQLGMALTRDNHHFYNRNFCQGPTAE
How it was run: (§1)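 After 22 h at 37 °C, SEAP secretion was measured from human TLR7-, TLR8- or TLR9-expressing HEK-Blue reporter cells given compound (0.05 nM–50 μM) 30 min before agonist: 7.5 μM gardiquimod, 15.9 μM R848 or 5 nM ODN2006 respectively. Percent inhibition referenced to agonist-plus-DMSO and known-inhibitor wells.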

human TLR8 = molecular target: T2, human TLR8 (Homo sapiens, UniProt Q9NR97); experiment: TLR8 inhibition reporter assay (HEK-Blue cells, SEAP reporter, R848 stimulation); conditions: HEK-Blue cells overexpressing human TLR8, SEAP reporter, R848 15.9 μM
T2 construct: host or cells: HEK-Blue cells (HEK293-derived reporter line)
T2 sequence (Q9NR97 27-1041): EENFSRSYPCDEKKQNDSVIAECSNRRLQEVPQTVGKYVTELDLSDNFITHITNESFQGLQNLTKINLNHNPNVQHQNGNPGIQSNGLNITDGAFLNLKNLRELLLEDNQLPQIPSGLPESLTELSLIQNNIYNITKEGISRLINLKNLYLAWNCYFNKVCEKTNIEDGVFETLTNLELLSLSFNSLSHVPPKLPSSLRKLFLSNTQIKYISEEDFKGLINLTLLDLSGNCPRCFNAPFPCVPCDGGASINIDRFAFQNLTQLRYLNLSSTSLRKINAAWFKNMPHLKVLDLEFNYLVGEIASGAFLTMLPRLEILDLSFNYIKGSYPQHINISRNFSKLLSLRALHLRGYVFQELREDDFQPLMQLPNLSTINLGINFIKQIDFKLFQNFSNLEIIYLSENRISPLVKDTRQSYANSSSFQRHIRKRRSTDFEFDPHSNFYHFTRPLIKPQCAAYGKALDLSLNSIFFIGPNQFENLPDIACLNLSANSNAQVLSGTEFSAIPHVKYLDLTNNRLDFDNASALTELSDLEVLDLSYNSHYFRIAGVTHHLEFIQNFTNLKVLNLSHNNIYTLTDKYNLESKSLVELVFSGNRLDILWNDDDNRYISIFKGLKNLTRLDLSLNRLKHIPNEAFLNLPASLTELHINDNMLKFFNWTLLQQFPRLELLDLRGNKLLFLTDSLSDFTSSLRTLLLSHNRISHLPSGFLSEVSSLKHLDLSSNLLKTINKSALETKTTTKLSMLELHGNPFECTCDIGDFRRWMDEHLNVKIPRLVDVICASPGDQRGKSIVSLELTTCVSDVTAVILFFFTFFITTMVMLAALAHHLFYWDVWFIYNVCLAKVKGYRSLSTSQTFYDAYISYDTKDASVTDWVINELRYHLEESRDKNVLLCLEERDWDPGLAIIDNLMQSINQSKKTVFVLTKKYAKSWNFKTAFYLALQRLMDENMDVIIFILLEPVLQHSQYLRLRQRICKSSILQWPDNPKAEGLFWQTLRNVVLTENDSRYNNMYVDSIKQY
How it was run: as §1

human TLR7 = molecular target: T3, human TLR7 (Homo sapiens, UniProt Q9NYK1); experiment: TLR7 inhibition reporter assay (HEK-Blue cells, SEAP reporter, gardiquimod stimulation); conditions: HEK-Blue cells overexpressing human TLR7, SEAP reporter, gardiquimod 7.5 μM
T3 construct: host or cells: HEK-Blue cells (HEK293-derived reporter line)
T3 sequence (Q9NYK1 27-1049): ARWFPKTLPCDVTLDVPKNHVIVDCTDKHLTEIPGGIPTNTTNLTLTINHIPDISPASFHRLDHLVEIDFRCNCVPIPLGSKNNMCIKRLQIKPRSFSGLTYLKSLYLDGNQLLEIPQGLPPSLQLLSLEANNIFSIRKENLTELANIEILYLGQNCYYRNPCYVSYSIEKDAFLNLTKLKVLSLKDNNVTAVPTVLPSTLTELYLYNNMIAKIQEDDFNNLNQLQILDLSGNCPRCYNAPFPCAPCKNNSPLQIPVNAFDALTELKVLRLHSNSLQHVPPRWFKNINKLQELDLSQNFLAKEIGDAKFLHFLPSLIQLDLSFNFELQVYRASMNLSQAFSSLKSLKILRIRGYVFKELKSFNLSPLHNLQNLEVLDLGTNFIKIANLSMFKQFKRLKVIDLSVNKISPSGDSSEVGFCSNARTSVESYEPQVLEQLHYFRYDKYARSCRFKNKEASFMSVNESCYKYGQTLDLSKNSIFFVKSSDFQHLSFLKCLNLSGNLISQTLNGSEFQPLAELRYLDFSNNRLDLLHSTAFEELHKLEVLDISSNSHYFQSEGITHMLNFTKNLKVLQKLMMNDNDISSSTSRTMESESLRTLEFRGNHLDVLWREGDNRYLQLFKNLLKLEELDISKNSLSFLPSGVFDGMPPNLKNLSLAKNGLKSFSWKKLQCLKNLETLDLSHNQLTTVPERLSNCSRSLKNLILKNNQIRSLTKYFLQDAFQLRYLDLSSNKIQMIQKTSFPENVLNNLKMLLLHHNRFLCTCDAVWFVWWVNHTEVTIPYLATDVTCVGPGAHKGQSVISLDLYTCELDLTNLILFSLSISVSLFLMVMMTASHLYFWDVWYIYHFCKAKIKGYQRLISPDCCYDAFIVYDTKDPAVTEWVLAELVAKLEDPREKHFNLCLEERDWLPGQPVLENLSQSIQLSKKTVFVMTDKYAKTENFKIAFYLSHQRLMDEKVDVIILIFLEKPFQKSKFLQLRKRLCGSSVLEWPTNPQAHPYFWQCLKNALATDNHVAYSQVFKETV
How it was run: as §1

Compound	IC50 (human TLR9) [nM]	IC50 (human TLR8) [nM]	IC50 (human TLR7) [nM]
CC(C)c1c(-c2ccnc3[nH]ncc23)[nH]c2ccc(C3CCN(C(=O)c4cc[nH]n4)CC3)cc12 [Example 615, (4-(3-isopropyl-2-(1H-pyrazolo[3,4-b]pyridin-4-yl)-1H-indol-5-yl)piperidin-1-yl)(1H-pyrazol-3-yl)methanone]	1000 to 50000	100 to 1000	100 to 1000
CCc1c(-c2ccnc3[nH]ncc23)[nH]c2ccc(C3CCN(Cc4cc(C)n[nH]4)CC3)cc12 [Example 900, 4-(3-ethyl-5-(1-((3-methyl-1H-pyrazol-5-yl)methyl)piperidin-4-yl)-1H-indol-2-yl)-1H-pyrazolo[3,4-b]pyridine]	1000 to 50000	< 100	100 to 1000
Cc1c(-c2nccc3[nH]cnc23)[nH]c2ccc(C3CCN(C4CCN(C(C)C)CC4)CC3)cc12 [Example 805, 4-(5-(1′-isopropyl-[1,4′-bipiperidin]-4-yl)-3-methyl-1H-indol-2-yl)-1H-imidazo[4,5-c]pyridine]	< 100	1000 to 50000	1000 to 50000
CC(C)c1c(-c2ccc3cnnn3c2)[nH]c2ccc(C3CCN(CC(=O)N(C)C)CC3)cc12 [Example 299, 2-(4-(2-([1,2,3]triazolo[1,5-a]pyridin-6-yl)-3-isopropyl-1H-indol-5-yl)piperidin-1-yl)-N,N-dimethylacetamide]	100 to 1000	100 to 1000	100 to 1000
Cc1ccnc2[nH]cc(-c3[nH]c4ccc(C5CCN(C6CCOCC6)CC5)cc4c3C(C)C)c12 [Example 690, 3-(3-isopropyl-5-(1-(tetrahydro-2H-pyran-4-yl)piperidin-4-yl)-1H-indol-2-yl)-4-methyl-1H-pyrrolo[2,3-b]pyridine]	1000 to 50000	< 100	< 100
CCc1c(-c2cnc3c(N)n[nH]c3c2)[nH]c2ccc(C3CCNCC3)cc12 [Example 240, 6-(3-ethyl-5-(piperidin-4-yl)-1H-indol-2-yl)-1H-pyrazolo[4,3-b]pyridin-3-amine]	1000 to 50000	1000 to 50000	1000 to 50000
CNC(=O)CN1CCC(c2ccc3[nH]c(-c4cc(CO)c5nccn5c4)c(C(C)C)c3c2)CC1 [Example 341, 2-(4-(2-(8-(hydroxymethyl)-6-imidazo[1,2-a]pyridinyl-6-yl)-3-isopropyl-1H-indol-5-yl)piperidin-1-yl)-N-methylacetamide]	100 to 1000	< 100	< 100
CC(C)c1c(-c2ccnc3[nH]ncc23)[nH]c2ccc(C3CCN(C(=O)CCN(C)C)CC3)cc12 [Example 643, 3-(dimethylamino)-1-(4-(3-isopropyl-2-(1H-pyrazolo[3,4-b]pyridin-4-yl)-1H-indol-5-yl)piperidin-1-yl)propan-1-one]	100 to 1000	< 100	< 100
CC(C)c1c(-c2ccc(C#N)c3ncccc23)[nH]c2ccc(C3CCN(CC(=O)N(C)C)CC3)cc12 [Example 370, 2-(4-(2-(8-cyanoquinolin-5-yl)-3-isopropyl-1H-indol-5-yl)piperidin-1-yl)-N,N-dimethylacetamide]	1000 to 50000	< 100	< 100
Cc1nnn2ccc(-c3[nH]c4ccc(C5CCNCC5)cc4c3C(C)C)cc12 [Example 77, 5-(3-isopropyl-5-(piperidin-4-yl)-1H-indol-2-yl)-3-methyl-[1,2,3]triazolo[1,5-a]pyridine]	100 to 1000	< 100	< 100
Cc1cc(-c2[nH]c3ccc(C4CCN(C(=O)CN(C)C)CC4)cc3c2C(C)C)cc2c1oc(=O)n2C [Example 489, 5-(5-(1-(dimethylglycyl)piperidin-4-yl)-3-isopropyl-1H-indol-2-yl)-3,7-dimethylbenzo[d]oxazol-2(3H)-one]	1000 to 50000	100 to 1000	< 100
CCc1ncc(CN2CCC(c3ccc4[nH]c(-c5ccnc6[nH]ncc56)c(CC)c4c3)CC2)[nH]1 [Example 915, 4-(3-ethyl-5-(1-((2-ethyl-1H-imidazol-5-yl)methyl)piperidin-4-yl)-1H-indol-2-yl)-1H-pyrazolo[3,4-b]pyridine]	100 to 1000	< 100	100 to 1000
